Assays:
[1] = biological target: T1, Glucagon-like peptide 1 receptor (Homo sapiens, UniProt P43220); assay: Inhibitory concentration required against human GLP1 receptor expressed in CHO cell membrane homogenates; type: cell-based
[2] = biological target: T1, Glucagon-like peptide 1 receptor; assay: Effective concentration against human GLP1 receptor expressed in CHO cells; type: cell-based

T1 sequence (P43220 whole entry): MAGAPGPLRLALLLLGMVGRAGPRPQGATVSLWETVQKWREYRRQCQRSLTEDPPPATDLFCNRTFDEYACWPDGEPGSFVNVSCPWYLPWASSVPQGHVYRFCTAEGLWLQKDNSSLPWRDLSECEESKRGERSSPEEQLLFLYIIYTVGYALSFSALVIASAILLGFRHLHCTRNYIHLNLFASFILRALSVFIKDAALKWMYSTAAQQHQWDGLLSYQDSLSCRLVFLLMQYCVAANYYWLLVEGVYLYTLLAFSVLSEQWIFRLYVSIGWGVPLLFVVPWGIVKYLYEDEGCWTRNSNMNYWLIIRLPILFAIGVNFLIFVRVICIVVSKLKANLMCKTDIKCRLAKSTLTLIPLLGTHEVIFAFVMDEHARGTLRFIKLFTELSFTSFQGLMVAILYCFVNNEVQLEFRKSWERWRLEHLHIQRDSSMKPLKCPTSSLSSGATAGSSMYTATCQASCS

SMILES | IC50 [1] [nM] | EC50 [2] [nM]
CC[C@H](C)[C@H](NC(=O)[C@H](CCCCNC(=O)COCCOCCNC(=O)CCN1C(=O)C=CC1=O)NC(=O)[C@H](CCC(=O)O)NC(=O)[C@H](CCCCN)NC(=O)[C@H](C)NC(=O)[C@H](C)NC(=O)[C@H](CCC(N)=O)NC(=O)CNC(=O)[C@H](CCC(=O)O)NC(=O)[C@H](CC(C)C)NC(=O)[C@H](Cc1ccc(O)cc1)NC(=O)[C@H](CO)NC(=O)[C@H](CO)NC(=O)[C@@H](NC(=O)[C@H](CC(=O)O)NC(=O)[C@H](CO)NC(=O)[C@@H](NC(=O)[C@H](Cc1ccccc1)NC(=O)[C@@H](NC(=O)CNC(=O)[C@H](CCC(=O)O)NC(=O)[C@H](C)NC(=O)[C@@H](N)Cc1c[nH]cn1)[C@@H](C)O)[C@@H](C)O)C(C)C)C(=O)N[C@@H](C)C(=O)N[C@@H](Cc1c[nH]c2ccccc12)C(=O)N[C@@H](CC(C)C)C(=O)N[C@H](C(=O)N[C@@H](CCCCN)C(=O)NCC(=O)N[C@@H](CCCN=C(N)N)C(N)=O)C(C)C | > 10000 | > 1000
CC[C@H](C)[C@H](NC(=O)[C@H](Cc1ccccc1)NC(=O)[C@H](CCC(=O)O)NC(=O)[C@H](CCCCN)NC(=O)[C@H](C)NC(=O)[C@H](C)NC(=O)[C@H](CCC(N)=O)NC(=O)CNC(=O)[C@H](CCC(=O)O)NC(=O)[C@H](CC(C)C)NC(=O)[C@H](Cc1ccc(O)cc1)NC(=O)[C@H](CCCCNC(=O)COCCOCCNC(=O)CCN1C(=O)C=CC1=O)NC(=O)[C@H](CO)NC(=O)[C@@H](NC(=O)[C@H](CC(=O)O)NC(=O)[C@H](CO)NC(=O)[C@@H](NC(=O)[C@H](Cc1ccccc1)NC(=O)[C@@H](NC(=O)CNC(=O)[C@H](CCC(=O)O)NC(=O)[C@H](C)NC(=O)[C@@H](N)Cc1c[nH]cn1)[C@@H](C)O)[C@@H](C)O)C(C)C)C(=O)N[C@@H](C)C(=O)N[C@@H](Cc1c[nH]c2ccccc12)C(=O)N[C@@H](CC(C)C)C(=O)N[C@H](C(=O)N[C@@H](CCCCN)C(=O)NCC(=O)N[C@@H](CCCN=C(N)N)C(N)=O)C(C)C | 713 | 28
